# Reference: patent US4235911A, “Hydantoin derivatives” (Pfizer Inc., priority 1979, dated 1980)
# pIC50: −log10 of the molar value.
# Key:
# [1] = system: sorbitol levels in the lens and sciatic nerve of diabetic subjects; experiment: lowering of sorbitol levels in the lens and nerve of diabetic subjects; type: in vivo; details: statement in words
# Description: (§1) The activity of the compounds of the present invention, as agents for the control of chronic diabetic complications, is determined by their ability to successfully pass one or more of the following standard biological and/or pharmacological tests, viz., (1) measuring their ability to inhibit the enzyme activity of isolated aldose reductase; (2) measuring their ability to reduce or inhibit sorbitol accumulation in the sciatic nerve of acutely streptozotocinized (i.e., diabetic) rats; (3) measuring their ability to reverse already-elevated sorbitol levels in the sciatic nerve and lens of chronic streptozotocin-induced diabetic rats; (4) measuring their ability to prevent or inhibit galactitol formation in the lens of acutely galactosemic rats, and (5) measuring their ability to delay cataract formation and reduce the severity of lens opacities in chronic galactosemic rats.
# [2] = system: galactitol levels in the lens of galactosemic subjects; experiment: lowering of galactitol levels in the lens of galactosemic subjects; type: in vivo; details: statement in words
# Description: as §1
# aldose reductase = target: T1, aldose reductase (Bos taurus, UniProt P16116); experiment: inhibition of isolated aldose reductase enzyme activity (procedure of S. Hayman et al. as modified by K. Sestanj et al.); type: biochemical, calf; details: for pIC50: partially purified aldose reductase from calf lens, 50% reduction in enzyme activity, read-out: Concentration Level (IC50); for aldose reductase inhibitory activity: statement in words
# T1 construct: partially purified aldose reductase enzyme obtained from calf lens; from tissue; host or cells: calf lens
# Description: as §1, with “rats. The following tetrahydroquinoline-derived spiro-hydantoin compounds of Examples 1-4, respectively, were tested for their ability to reduce or inhibit aldose reductase enzyme activity via the procedure of S. Hayman et al., as described in the Journal of Biological Chemistry, Vol. 240, p. 877 (1965) and as modified by K. Sestanj et al. in U.S. Pat. No. 3,821,383. In every case, the substrate employed was partially purified aldose reductase enzyme obtained from calf lens.” for “rats.”
# [3] = toxic side effects in diabetic rats, oral; type: in vivo, rat; details: 5.0 mg./kg. to 25 mg./kg.
# Source text: (§2) As previously indicated, the tetrahydroquinoline-derived spiro-hydantoin compounds of this invention are all readily adapted to therapeutic use as aldose reductase inhibitors for the control of chronic diabetic complications, in view of their ability to reduce lens sorbitol levels in diabetic subjects to a statistically significant degree. […] The other compounds of this invention also cause similar results. Furthermore, all the herein described compounds of this invention can be administered by either the oral or parenteral routes of administration, for the present purposes at hand, without causing any significant untoward pharmacological side reactions to occur in the subject to whom they are so administered. In general, these compounds are ordinarily administered in dosages ranging from about 0.25 mg. to about 25 mg. per kg. of body weight per day, although variations will necessarily occur depending upon the weight and condition of the subject being treated and the particular route of administration chosen.
# [4] = system: formation of sorbitol levels in diabetic rats; experiment: inhibition of formation of sorbitol levels in diabetic rats, oral; type: in vivo, rat; details: 5.0 mg./kg. to 25 mg./kg.
# Source text: as §2
pIC50 (aldose reductase),aldose reductase inhibitory activity (aldose reductase),SMILES,lowering sorbitol levels in the lens and sciatic nerve of diabetic subjects [1],lowering galactitol levels in the lens of galactosemic subjects [2],toxic side effects [3],"control (i.e., inhibit) the formation of sorbitol levels in diabetic rats [4]"
5.00,highly potent,"O=C1NC(=O)C2(CCNc3cc(Cl)ccc32)N1 (stereo not drawn) [Product of Example 3, 7'-chloro-1',2',3',4'-tetrahydro-spiro-[imidazolidine-4,4'-quinoline]-2,5-dione]",extremely effective,extremely effective,,
5.00,highly potent,"CN1CCC2(NC(=O)NC2=O)c2cccnc21 (stereo not drawn) [Product of Example 2, 1'-methyl-1',2',3',4'-tetrahydro-spiro-[imidazolidine-4,4'-pyrido(2,3-b)pyridine]-2,5-dione]",extremely effective,extremely effective,,
4.30,highly potent,"CN1CCC2(NC(=O)NC2=O)c2ccccc21.Cl (stereo not drawn) [Product of Example 1, 1'-methyl-1',2',3',4'-tetrahydro-spiro-[imidazolidine-4,4'-quinoline]-2,5-dione hydrochloride]",extremely effective,extremely effective,,

SMILES,pIC50 (aldose reductase),aldose reductase inhibitory activity (aldose reductase),lowering sorbitol levels in the lens and sciatic nerve of diabetic subjects [1],lowering galactitol levels in the lens of galactosemic subjects [2],toxic side effects [3],"control (i.e., inhibit) the formation of sorbitol levels in diabetic rats [4]"
"O=C1NC(=O)C2(CCNc3ccc(Cl)cc32)N1 (stereo not drawn) [Product of Example 4, 6'-chloro-1',2',3',4'-tetrahydro-spiro-[imidazolidine-4,4'-quinoline]-2,5-dione]",6.00,highly potent,extremely effective,extremely effective,without showing any substantial signs of toxic side effects,to a significantly high degree
